{"source": "patent US11980609B2", "about": "“LPA receptor antagonists and uses thereof” (Gilead Sciences, Inc., priority 2021, dated 2024)"}
{"biological_target": "T1, human LPAR1 (Homo sapiens, UniProt Q92633)", "T1 construct": "host or cells: CHO-K1", "T1 sequence (Q92633 whole entry)": "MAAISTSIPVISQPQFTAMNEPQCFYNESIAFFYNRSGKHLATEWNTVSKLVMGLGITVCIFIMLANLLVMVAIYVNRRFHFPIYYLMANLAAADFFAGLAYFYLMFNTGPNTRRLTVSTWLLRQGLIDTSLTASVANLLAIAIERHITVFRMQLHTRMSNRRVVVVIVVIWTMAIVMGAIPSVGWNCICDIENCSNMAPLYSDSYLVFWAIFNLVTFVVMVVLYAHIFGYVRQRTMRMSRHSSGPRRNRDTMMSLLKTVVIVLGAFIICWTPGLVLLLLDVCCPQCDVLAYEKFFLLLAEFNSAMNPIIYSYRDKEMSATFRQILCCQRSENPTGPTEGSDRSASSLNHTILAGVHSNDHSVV", "experiment": "LPAR1 intracellular calcium mobilization assay (antagonist mode)", "assay_type": "cell-based", "details": "CHO-K1 EDG2 cells expressing human LPAR1; 60 min pre-incubation with compound (0.5 nM to 10 μM), then LPA 18:2 challenge; FLIPR Tetra calcium signal", "protocol": "In vitro LPAR1 activity was measured in an intracellular calcium mobilization assay.\nCHO-K1 EDG2 cells (DiscoverX cat #93-0644C2) expressing human LPAR1 (NM_001401.3) were seeded in a total volume of 25 μL of Dulbecco's Modification of Eagle's Medium (DMEM) with 10% Fetal Bovine Serum, 1× PenStrepGlutamine, 300 μg/ml Hygromycin, and 800 μg/ml G418 into 384-well tissue culture plate (Grenier #781091) at 15,000 cells/well and incubated at 37° C. overnight. Prior to testing, 25 μL Calcium Loading Dye Component A (FLIPR Calcium 6 Assay Kit Molecular Device #R8190) and 2.5 mM Probenecid (Invitrogen #P36400, prepared fresh) in Hank's Balanced Salt Solution (Corning #21-023-CV), 20 mM HEPES (Corning #25-060-CI), 0.1% Bovine Serum Albumin (Sigma-Aldrich #A7906-500G) was add to the cells for 60 minutes at 37° C.\nAgonist dose curves of LPA 18:2 (Avanti Polar Lipids cat #857138, 0.5 nM to 10 μM) were recorded to determine the LPA 18:2 EC80 for subsequent antagonist assays. For agonist dose curves, cells were removed from the incubator 2 hours after dye loading and transferred to the FLIPR Tetra instrument (Molecular Devices, San Jose, CA). Calcium mobilization was monitored for 5 min and 10 μL 6×LPA in HBSS/20 mM Hepes/0.1% bovine serum albumin (BSA) was added to the cells 5 seconds into the assay.\nTo determine the LPAR1 antagonist activity of test compounds, cells were pre-incubated with test compound at a dose range of 0.5 nM to 10 μM, followed by LPA at […] concentration (100 nM). After dye loading, cells were removed from the incubator and 0.3 μL of 200× antagonist was added. Cells were incubated for 60 minutes at 37° C. Antagonist activity was measured on a FLIPR Tetra. Calcium mobilization was monitored for 3.5 minutes and 10 μL 6×EC80 LPA in HBSS, 20 mM HEPES, and 0.1% BSA was added to the cells 5 seconds into the assay. Signal amplitude (Maximum minus minimum) values were plotted against log10 of antagonist concentration using Dose Response Tool (Gilead Sciences Inc.) to determine EC50.\nTo assess the antagonistic potential of exemplified compounds EC50 values were determined for Compounds 1 to 55 in the LPAR1 calcium mobilization assay. The compound numbers correspond to the compound numbers in Examples 1 to 35. N/A=not available.", "units": {"EC50": "nM"}}
{"smiles": "C[C@@H](OC(=O)Nc1c(-c2ccc(NS(C)(=O)=O)cc2)cnn1C)c1ccccc1Cl", "note": "[Compound 1, (R)-1-(2-chlorophenyl)ethyl (1-methyl-4-(4-(methylsulfonamido)phenyl)-1H-pyrazol-5-yl)carbamate]", "EC50": 11.7}
{"smiles": "Cc1nc(-c2cnn(C)c2NC(=O)O[C@H](C)c2cccnc2Cl)ncc1OS(C)(=O)=O", "note": "[Compound 3, (R)-2-(5-(((1-(2-chloropyridin-3-yl)ethoxy)carbonyl)amino)-1-methyl-1H-pyrazol-4-yl)-4-methylpyrimidin-5-yl methanesulfonate]", "EC50": 39.6}
{"smiles": "Cc1nc(-c2cnn(C)c2NC(=O)O[C@H](C)c2cccnc2Cl)ncc1O", "note": "[Compound 4, (R)-1-(2-chloropyridin-3-yl)ethyl (4-(5-hydroxy-4-methylpyrimidin-2-yl)-1-methyl-1H-pyrazol-5-yl)carbamate]", "EC50": 167}
{"smiles": "CCS(=O)(=O)Oc1cnc(-c2cnn(C)c2NC(=O)O[C@H](C)c2cc(F)cnc2Cl)nc1", "note": "[Compound 5, (R)-2-(5-(((1-(2-chloro-5-fluoropyridin-3-yl)ethoxy)carbonyl)amino)-1-methyl-1H-pyrazol-4-yl)pyrimidin-5-yl ethanesulfonate]", "EC50": 51.5}
{"smiles": "C[C@@H](OC(=O)Nc1c(-c2ncc(OS(C)(=O)=O)cn2)cnn1C)c1cc(F)cnc1Cl", "note": "[Compound 6, (R)-2-(5-(((1-(2-chloro-5-fluoropyridin-3-yl)ethoxy)carbonyl)amino)-1-methyl-1H-pyrazol-4-yl)pyrimidin-5-yl methanesulfonate]", "EC50": 14.1}
{"smiles": "C[C@@H](OC(=O)Nc1c(-c2ncc(OS(=O)(=O)C3CC3)cn2)cnn1C)c1cccnc1F", "note": "[Compound 7, (R)-2-(5-(((1-(2-fluoropyridin-3-yl)ethoxy)carbonyl)amino)-1-methyl-1H-pyrazol-4-yl)pyrimidin-5-yl cyclopropanesulfonate]", "EC50": 1410}
{"smiles": "C[C@@H](OC(=O)Nc1c(-c2ncc(OS(C)(=O)=O)cn2)cnn1C)c1cccnc1F", "note": "[Compound 8, (R)-2-(5-(((1-(2-fluoropyridin-3-yl)ethoxy)carbonyl)amino)-1-methyl-1H-pyrazol-4-yl)pyrimidin-5-yl methanesulfonate]", "EC50": 523}
{"smiles": "C[C@@H](OC(=O)Nc1c(-c2ncc(OS(C)(=O)=O)cn2)cnn1C)c1cccnc1Cl", "note": "[Compound 9, (R)-2-(5-(((1-(2-chloropyridin-3-yl)ethoxy)carbonyl)amino)-1-methyl-1H-pyrazol-4-yl)pyrimidin-5-yl methanesulfonate]", "EC50": 42.9}
{"smiles": "C[C@@H](OC(=O)Nc1c(-c2ncc(O)cc2F)cnn1C)c1cccnc1Cl", "note": "[Compound 10, (R)-1-(2-chloropyridin-3-yl)ethyl (4-(3-fluoro-5-hydroxypyridin-2-yl)-1-methyl-1H-pyrazol-5-yl)carbamate]", "EC50": 56.8}
{"smiles": "C[C@@H](OC(=O)Nc1c(-c2ncc(OS(C)(=O)=O)cc2F)cnn1C)c1cc(F)cnc1F", "note": "[Compound 11, (R)-6-(5-(((1-(2,5-difluoropyridin-3-yl)ethoxy)carbonyl)amino)-1-methyl-1H-pyrazol-4-yl)-5-fluoropyridin-3-yl methanesulfonate]", "EC50": 74}
{"smiles": "C[C@@H](OC(=O)Nc1c(-c2ncc(OS(C)(=O)=O)cc2F)cnn1C)c1cccnc1Cl", "note": "[Compound 12, (R)-6-(5-(((1-(2-chloropyridin-3-yl)ethoxy)carbonyl)amino)-1-methyl-1H-pyrazol-4-yl)-5-fluoropyridin-3-yl methanesulfonate]", "EC50": 31.1}
{"smiles": "Cc1nc(-c2cnn(C)c2NC(=O)O[C@H](C)c2cccc(F)c2)ccc1NS(C)(=O)=O", "note": "[Compound 13, (R)-1-(3-fluorophenyl)ethyl (1-methyl-4-(6-methyl-5-(methylsulfonamido)pyridin-2-yl)-1H-pyrazol-5-yl)carbamate]", "EC50": 1250}
{"smiles": "COC(=O)Nc1ccc(-c2cnn(C)c2NC(=O)O[C@H](C)c2cccc(F)c2)nc1C", "note": "[Compound 14, (R)-1-(3-fluorophenyl)ethyl (4-(5-((methoxycarbonyl)amino)-6-methylpyridin-2-yl)-1-methyl-1H-pyrazol-5-yl)carbamate]", "EC50": 4180}
{"smiles": "C[C@@H](OC(=O)Nc1c(-c2ccc3c(n2)OCC(=O)N3)cnn1C)c1cc(F)cnc1Cl", "note": "[Compound 15, (R)-1-(2-chloro-5-fluoropyridin-3-yl)ethyl (1-methyl-4-(2-oxo-2,3-dihydro-1H-pyrido[2,3-b][1,4]oxazin-6-yl)-1H-pyrazol-5-yl)carbamate]", "EC50": 25.7}
{"smiles": "C[C@@H](OC(=O)Nc1c(-c2ncc(NC(=O)C34CC(F)(C3)C4)cc2F)cnn1C)c1cc(F)cnc1F", "note": "[Compound 16, (R)-1-(2,5-difluoropyridin-3-yl)ethyl (4-(3-fluoro-5-(3-fluorobicyclo[1.1.1]pentane-1-carboxamido)pyridin-2-yl)-1-methyl-1H-pyrazol-5-yl)carbamate]", "EC50": 15.8}
{"smiles": "C[C@@H](OC(=O)Nc1c(-c2ncc(NC(=O)C3(C#N)CC3)cc2F)cnn1C)c1cc(F)cnc1F", "note": "[Compound 17, (R)-1-(2,5-difluoropyridin-3-yl)ethyl (4-(5-(1-cyanocyclopropane-1-carboxamido)-3-fluoropyridin-2-yl)-1-methyl-1H-pyrazol-5-yl)carbamate]", "EC50": 19.7}
{"smiles": "C[C@@H](OC(=O)Nc1c(-c2ncc(NC(=O)c3cnc(C(F)F)nc3)cc2F)cnn1C)c1cc(F)cnc1F", "note": "[Compound 18, (R)-1-(2,5-difluoropyridin-3-yl)ethyl (4-(5-(2-(difluoromethyl)pyrimidine-5-carboxamido)-3-fluoropyridin-2-yl)-1-methyl-1H-pyrazol-5-yl)carbamate]", "EC50": 36.1}
{"smiles": "C[C@@H](OC(=O)Nc1c(-c2ccc(NC(=O)C3(C#N)CC3)cn2)cnn1C)c1cc(F)cnc1F", "note": "[Compound 19, (R)-1-(2,5-difluoropyridin-3-yl)ethyl (4-(5-(1-cyanocyclopropane-1-carboxamido)pyridin-2-yl)-1-methyl-1H-pyrazol-5-yl)carbamate]", "EC50": 763}
{"smiles": "C[C@@H](OC(=O)Nc1c(-c2ccc(NS(C)(=O)=O)cn2)cnn1C)c1cccnc1Cl", "note": "[Compound 20, (R)-1-(2-chloropyridin-3-yl)ethyl (1-methyl-4-(5-(methylsulfonamido)pyridin-2-yl)-1H-pyrazol-5-yl)carbamate]", "EC50": 216}
{"smiles": "C[C@@H](OC(=O)Nc1c(-c2ncc(NC(=O)C3(C#N)CC3)cn2)cnn1C)c1cc(F)cnc1F", "note": "[Compound 21, (R)-1-(2,5-difluoropyridin-3-yl)ethyl (4-(5-(1-cyanocyclopropane-1-carboxamido)pyrimidin-2-yl)-1-methyl-1H-pyrazol-5-yl)carbamate]", "EC50": 81.5}
{"smiles": "C[C@@H](OC(=O)Nc1c(-c2ncc(NC(=O)c3cnc(C(F)(F)F)nc3)cn2)cnn1C)c1cc(F)cnc1F", "note": "[Compound 22, (R)-1-(2,5-difluoropyridin-3-yl)ethyl (1-methyl-4-(5-(2-(trifluoromethyl)pyrimidine-5-carboxamido)pyrimidin-2-yl)-1H-pyrazol-5-yl)carbamate]", "EC50": 8.9}
{"smiles": "C[C@@H](OC(=O)Nc1c(-c2ncc(NC(=O)C3(C#N)CC3)cn2)cnn1C)c1cc(F)cnc1Cl", "note": "[Compound 23, (R)-1-(2-chloro-5-fluoropyridin-3-yl)ethyl (4-(5-(1-cyanocyclopropane-1-carboxamido)pyrimidin-2-yl)-1-methyl-1H-pyrazol-5-yl)carbamate]", "EC50": 16.8}
